Laboratory results as given in patent publication US20240368115A1, “REGULATOR CONTAINING TRICYCLIC DERIVATIVE, PREPARATION METHOD THEREFOR AND APPLICATION THEREOF” (SHUJING BIOPHARMA CO., LTD, priority 2021, published 2024).
pEC50, pIC50: −log10 of the molar value.

How the values were obtained:
[1] = molecular target: 5-HT2B receptor (Homo sapiens, UniProt P41595); experiment: Calcium flux test for 5-HT2B receptor; format: cell-based; settings: HEK293 cell strain stably expressing 5-HT2B receptor
5-HT2B receptor, sequence (P41595 whole entry): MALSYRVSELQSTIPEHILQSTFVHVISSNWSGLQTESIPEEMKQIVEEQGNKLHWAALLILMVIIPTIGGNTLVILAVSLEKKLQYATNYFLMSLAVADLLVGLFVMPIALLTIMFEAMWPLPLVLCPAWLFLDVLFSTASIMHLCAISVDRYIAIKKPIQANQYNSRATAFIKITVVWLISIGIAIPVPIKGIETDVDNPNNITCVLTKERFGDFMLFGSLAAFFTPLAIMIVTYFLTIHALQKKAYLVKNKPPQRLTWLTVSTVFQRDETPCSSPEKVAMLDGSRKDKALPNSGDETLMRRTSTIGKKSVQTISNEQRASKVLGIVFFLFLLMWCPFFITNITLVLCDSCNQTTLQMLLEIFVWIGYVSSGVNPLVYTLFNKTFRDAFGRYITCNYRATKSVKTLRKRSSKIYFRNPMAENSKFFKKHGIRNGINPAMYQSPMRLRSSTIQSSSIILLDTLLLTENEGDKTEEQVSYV
Source text: • Fluo-4 calcium flux detection kit was purchased from Invitrogen; an HEK293 cell strain stably expressing 5-HT2B receptor was purchased from GenScript; serotonin was purchased from Sigma; methiothepin was purchased from Targetmol; polylysine-coated 384-well plates and 384-well compound plates were purchased from Greiner Bio-One. Molecular Device FLIPR, Agilent Bravo liquid workstation, and Countstar BioTech cell counter.
• (1) The cultured cells were digested with trypsin, and the cell suspension was taken after the digestion was terminated. The cryopreserved cells were rapidly thawed in a water bath at 37° C., and the cells were resuspended in a plating medium. […] The pellet was resuspended in an appropriate amount of plating medium, 20 μL of cell suspension was counted using a cell counter, and the cell density was diluted to 1×10^6 cells/mL. • (2) 20 μL of cell suspension was added to a polylysine-coated 384-well plate (2×10^4 cells/well). • (3) The cell plate was incubated in a 37° C./5% CO2 incubator for 16-20 h.
• (1) The cell plate was taken out from the incubator and centrifuged at 100×g to remove the medium. […] The cell plate and agonist positive compound plate were placed into the FLIPR instrument, the detection program was run, 10 μL of the diluted compound was transferred from the agonist compound plate to the cell plate, and the fluorescence signal was read. […]

[2] = Pharmacokinetic test in mice; format: in vivo; settings: male, ICR, mouse, plasma, po, 5 mg/kg, oral intragastric, single dose 5 mg/kg
Description: Male ICR mice were administered orally intragastrically, the plasma concentrations of the compounds of the present invention were measured in the mice, the PK parameters were calculated, and the pharmacokinetic evaluation was performed on the compounds of the present invention.
• (1) Test samples: the compounds of the examples of the present invention, self-made. • (2) Test animals: ICR mice, SPF grade, male, Xuzhou Medical University. • (3) Main test instruments:
Drug preparation: according to the weight of the weighed drug, the preparation volume was calculated. 5% of DMSO was added firstly. After the drug was fully dissolved, 95% of 20% aqueous PB-cyclodextrin solution was then added, and the mixture was mixed well for later use.
Administration route: oral intragastric administration. Frequency and duration of administration: single administration.
ICR mice were stratified according to body weight and then randomly divided into groups of 9 mice each, and the mice were fasted overnight prior to the test. The mice were separately administered orally intragastrically. 50 μL of blood was collected from the fundus vein of the mouse at 0 h, 0.083 h, 0.25 h, 0.5 h, 1 h, 2 h, 4 h, 8 h, 12 h, and 24 h (3 time points for each mouse) to a sample tube containing heparin sodium as an anticoagulant, and the tube was placed in wet ice and centrifuged at 4000 r·min^−1 for 10 min. The plasma was separated, and cryopreserved in a refrigerator at −80° C. for testing.
The concentrations of plasma samples were measured by high performance liquid chromatography-tandem mass spectrometry (LC-MS/MS). The retention times of the compounds and internal standard, chromatogram acquisitions, and integrals of chromatograms were processed using the software Analyst (AB SCIEX), and the data statistics were processed using the software Watson LIMS (Thermo Fisher Scientific) or Analyst (AB SCIEX). The concentration of plasma was processed using a non-compartmental model of the pharmacokinetic software WinNonlin™ Version 6.3 (Pharsight, Mountain View, CA), and pharmacokinetic parameters were calculated by a linear log-trapezoidal method.

[3] = molecular target: T1, 5-HT1A receptor (Homo sapiens, UniProt P08908); experiment: 5-HT1A receptor cAMP agonist test; format: cell-based; settings: HEK293 cell strain stably expressing 5-HT1A receptor
T1 construct: expressed in transfected cells
T1 sequence (P08908 1-422): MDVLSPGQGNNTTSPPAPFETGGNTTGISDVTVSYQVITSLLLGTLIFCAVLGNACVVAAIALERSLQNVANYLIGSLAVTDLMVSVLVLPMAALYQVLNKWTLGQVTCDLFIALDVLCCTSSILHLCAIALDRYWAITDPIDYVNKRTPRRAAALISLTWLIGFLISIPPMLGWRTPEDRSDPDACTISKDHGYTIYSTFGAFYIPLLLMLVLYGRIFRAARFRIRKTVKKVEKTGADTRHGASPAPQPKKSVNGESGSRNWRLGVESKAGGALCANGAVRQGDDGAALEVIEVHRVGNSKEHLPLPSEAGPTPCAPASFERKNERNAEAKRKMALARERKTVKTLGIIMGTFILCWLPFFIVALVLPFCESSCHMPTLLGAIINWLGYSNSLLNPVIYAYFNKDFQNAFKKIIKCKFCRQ

SMILES: O=C1Nc2cc(OCCCCN3CCN(c4cccc(Cl)c4Cl)CC3)ccc2C2CC12 (stereo not shown) [Example 1, 5-(4-(4-(2,3-Dichlorophenyl)piperazin-1-yl)butoxy)-3,7b-dihydro-1H-cyclopropa[c]quinolin-2(1aH)-one]
- pIC50 ([1]; calcium flux, antagonism of serotonin): 6.18
- 5-HT2B Max Inh % ([1]; positive control methiothepin 10^−5 M): 105.8%
- half-life [2]: 10.8 h
- AUC(0-inf) ([2]; read-out: AUC(0-inf)): 7160 ng·h/mL
- Cmax ([2]; read-out: Cmax): 511 ng/mL
- pEC50 ([3]; cAMP, forskolin 2.5×10^−7 M): 6.00
- 5-HT1A Max Act % ([3]; positive control serotonin 10^−6 M): 50.2%
